Reference: ChEMBL document CHEMBL3272273, “Synthesis and pharmacological activity and some derivatives of 1-phenyl-1,2,3,4-tetrahydro-5H-1,4-benzodiazepin-5-one” (J Med Chem, 1978)

Columns and labels:
[1] = Acute toxicity in ip dosed albino mouse measured within 24 hrs; assay type: organism-based; details: in vivo
Mus musculus [2] = assay: Toxicity in ip dosed mouse assessed as sedative action; assay type: organism-based; details: in vivo
Mus musculus [3] = assay: Neurotoxicity in albino mouse at 10 mg/kg, po up to 5 mins by rotorod test relative to control; assay type: toxicity, organism-based; design: dose 10 mg/kg, route oral; details: in vivo
Mus musculus [4] = assay: Toxicity in albino mouse assessed as body-temperature variation at 10 mg/kg, ip measured 20 mins after dl-amphetamine sulfate injection dosed 30 mins before dl-amphetamine sulfate injection; assay type: organism-based; design: dose 10 mg/kg, route intraperitoneal; details: in vivo
Ileum [5] = assay: Antiacetylcholine activity in guinea pig ileum assessed as dose required to decrease 50 to 100% of acetylcholine-induced effect treated 5 mins before acetylcholine addition; assay type: functional, Cavia porcellus
Mus musculus [6] = assay: Toxicity in albino mouse assessed as translatory movements at 10 mg/kg, ip relative to control; assay type: organism-based; design: dose 10 mg/kg, route intraperitoneal; details: in vivo
Mus musculus [7] = assay: Toxicity in ip dosed albino mouse assessed as barbiturate-induced sleep by measuring loss of righting reflex relative to control; assay type: organism-based; details: in vivo
Ileum [8] = assay: Antihistamine activity in guinea pig ileum assessed as dose required to decrease 50 to 100% of histamine induced effect treated 5 mins before histamine addition; assay type: functional, Cavia porcellus
Mus musculus [9] = assay: Toxicity in ip dosed albino mouse assessed as barbiturate-induced sleep by measuring loss of righting reflex administered 45 mins before barbiturate challenge relative to control; assay type: organism-based; details: in vivo, 0.75 h
[10] = Antinoradrenaline activity in isolated Wistar rat caudal artery assessed as dose required to decrease 20 to 50% of noradrenaline-induced effect per 6 mL/min after 15 mins; assay type: functional
[11] = Antitrypatamine activity in isolated Wistar rat caudal artery assessed as dose required to decrease 20 to 50% of […]-induced effect per 6 mL/min after 15 mins; assay type: functional
Mus musculus [12] = assay: Toxicity in albino mouse assessed as translatory movements at 5 mg/kg, ip relative to control; assay type: organism-based; design: dose 5 mg/kg, route intraperitoneal; details: in vivo
Mus musculus [13] = assay: Anticonvulsant activity in ip dosed albino mouse assessed as dose causing >25% increase in maximal electroshock-induced maximal extensor seizure relative to untreated control; assay type: functional
Mus musculus [14] = assay: Neurotoxicity in albino mouse at 5 mg/kg, po up to 5 mins by rotorod test relative to control; assay type: toxicity, organism-based; design: dose 5 mg/kg, route oral; details: in vivo
Mus musculus [15] = assay: Toxicity in ip dosed albino mouse assessed as dose required to increase 25% of dl-amphetamine sulfate-induced death; assay type: organism-based; details: in vivo
Mus musculus [16] = assay: Toxicity in albino mouse assessed as body-temperature variation at 5 mg/kg, ip measured 20 mins after dl-amphetamine sulfate injection dosed 30 mins before dl-amphetamine sulfate injection; assay type: organism-based; design: dose 5 mg/kg, route intraperitoneal; details: in vivo
Mus musculus [17] = assay: Anticonvulsant activity in ip dosed albino mouse assessed as dose causing total prevention of maximal electroshock-induced maximal extensor seizure; assay type: functional

SMILES	LD50 at 24 h [1] [mg/kg]	Activity (Mus musculus [2])	Activity (Mus musculus [3]) [%]	temperature change (Mus musculus [4]) [°C]	Activity (Ileum [5]) [µg/mL]	Activity (Mus musculus [6]) [%]	Activity (Mus musculus [7]) [%]	Activity (Ileum [8]) [µg/mL]	Activity (Mus musculus [9]) [%]	Activity [10] [µg/min]	Activity [11] [µg/min]	Activity (Mus musculus [12]) [%]	Activity (Mus musculus [13]) [mg/kg]	Activity (Mus musculus [14]) [%]	Activity (Mus musculus [15]) [mg/kg]	temperature change (Mus musculus [16]) [°C]	Activity (Mus musculus [17]) [mg/kg]
Nc1ccc(N2CCNC(=O)c3ccccc32)cc1	> 400	Non-toxic	-20	1.4	200	2	90	200	50	–	–	–	–	–	–	–	–
O=C1c2ccccc2N(c2ccccc2)CCN1CCN1CCCC1	80	Non-toxic	-32	-0.2	100	-10	60	50	20	15	50	–	–	–	–	–	–
Nc1ccc2c(c1)C(=O)NCCN2c1ccc([N+](=O)[O-])cc1	> 400	Non-toxic	39	1.2	50	-15	70	200	50	–	–	–	–	–	–	–	–
C[N+](C)(C)CCN1CCN(c2ccccc2)c2ccccc2C1=O.[I-]	35	Non-toxic	–	–	50	–	-40	50	15	50	50	20	15	-21	5	-0.3	–
CC(C[N+](C)(C)C)N1CCN(c2ccccc2)c2ccccc2C1=O.[I-] (stereo unspecified)	15	Non-toxic	–	–	200	–	-15	50	5	50	15	1	5	-7	–	0.3	–
O=C1c2ccccc2N(c2ccccc2)CCN1CCN1CCCCC1	75	Non-toxic	-27	1.4	100	-11	45	50	20	25	25	–	25	–	10	–	–
C[N+]1(CCN2CCN(c3ccccc3)c3ccccc3C2=O)CCCCC1.[I-]	15	Non-toxic	8	–	50	–	20	200	3	25	50	-20	–	–	–	0.9	–
CNC1=Nc2ccc(Cl)cc2C(c2ccccc2)=[N+]([O-])C1 [CHLORDIAZEPOXIDE]	780	Non-toxic	-50	–	3	-40	–	3	–	18	20	–	–	–	–	–	90
CCN(CC)CCN1CCN(c2ccccc2)c2ccccc2C1=O	75	Non-toxic	11	–	100	1	40	100	10	80	50	–	5	–	–	–	–
C[N+]1(CCN2CCN(c3ccccc3)c3ccccc3C2=O)CCCC1.[I-]	10	Non-toxic	11	–	100	–	30	50	5	5	50	-8	3	–	3	1.6	–
CN(C)CCN1CCN(c2ccccc2)c2ccccc2C1=O	100	Non-toxic	-6	0.6	100	-30	4	50	15	200	50	–	50	–	10	–	–
CN(C)CCCN1CCN(c2ccccc2)c2ccccc2C1=O	116	Non-toxic	-12	–	100	-15	35	100	10	160	50	–	10	–	–	–	–
CN1C(=O)CN=C(c2ccccc2)c2cc(Cl)ccc21 [DIAZEPAM]	–	Non-toxic	-40	–	–	-50	–	4	–	–	–	–	–	–	–	–	50
CC[N+](C)(CC)CCN1CCN(c2ccccc2)c2ccccc2C1=O.[I-]	15	Non-toxic	–	–	50	–	-40	50	5	50	15	-3	5	20	3	1.4	–
O=C1NCCN(c2ccc([N+](=O)[O-])cc2)c2ccc([N+](=O)[O-])cc21	> 400	Non-toxic	-45	1	200	-21	40	200	50	–	–	–	–	–	–	–	–
CC(CN(C)C)N1CCN(c2ccccc2)c2ccccc2C1=O (stereo unspecified)	130	Non-toxic	-25	–	50	4	20	50	12.5	160	50	–	12	–	–	–	–
C[N+](C)(C)CCCN1CCN(c2ccccc2)c2ccccc2C1=O.[I-]	50	Non-toxic	–	–	50	–	-25	50	10	100	50	-5	10	70	5	1.2	–
